In patent US20060052341A1, “Control of a biological function” (priority 2002, published 2006):
Read-outs that look alike come from different tables or passages of the source. One block for each molecule: values may come before it.

Experiments:
[1] = cited from earlier work
[2] = treated cows; cited from earlier work
cattle = assay: Luteolysis studies with intravaginal sodium cloprostenol; assay type: in vivo
Method: In effecting the desired delivery regime for the present invention as directed to use in controlling bestrus in cattle, a number of studies were conducted. […] There is no reliable blood test for sodium cloprostenol. The best test is to assess the success of luteolysis following application of sodium cloprostenol.

dairy cows = conditions: seven hundred and thirty seven dairy cows, three years; cited from earlier work
in vivo = conditions: female, cattle
Source text: In the urine, up to 30% of an administered dose appears as a conjugate of glucuronic acid and pregnanediol.

[3] = rat, in vivo; cited from earlier work
[4] = within 6 hours of ingesting 1.5 g, human subjects; cited from earlier work
[5] = Serum oestradiol after intravaginal release of oestradiol 17β/cyclodextrin tablets; oestradiol half life; assay type: in vivo, cattle
Method: However, oestradiol benzoate is only one of the preferred oestrogen component of the present invention.
For the purpose of the present invention as exampled via the control of oestrus in cattle, release of oestrogen tablets into the vagina was carefully timed and recorded. […] A 1 mg dose produced maximum mean values of 130-180 pg/ml at 100-130 minutes after treatment, while a 2 mg dose led to maxima of 180 to >250 pg at 120-150 minutes.
A 1 mg dose produced maximum mean values of 130-180 pg/ml at 100-130 minutes after treatment, while a 2 mg dose led to maxima of 180 to >250 pg at 120-150 minutes, as illustrated in FIG. 11.

[6] = prior art, cited from earlier work
[7] = 24 mg controlled release implants, non-pregnant heifers; cited from earlier work
[8] = 1 mg oestradiol benzoate by intramuscular injection
[9] = vaginal administration of 10 mg oestradiol benzoate
[10] = 1 mg dose, intravaginal tablet with cyclodextrin carrier
[11] = 7.2 mg oestradiol 17β intravaginally

SMILES: CCCCC[C@H](O)/C=C/[C@@H]1[C@@H](C/C=C\CCCC(=O)O)[C@@H](O)C[C@H]1O [prostaglandin PGF2α, prostaglandin F2α]
half-life ([1]; rapid breakdown): a few minutes
half-life in the blood [2]: three

SMILES: O=C(O)CCC/C=C\CC1C(O)CC(O)C1/C=C/C(O)COc1cccc(Cl)c1 (stereo not drawn) [sodium cloprostenol, cloprostenol sodium]
response to treatment compared with prior art intramuscular injection of prostaglandin alone (cattle; HPβCD carrier, increased dose rate): equivalent response
luteolytic effect (cattle; intravaginal, without a suitable carrier, at the level dosed): not having a complete luteolic effect
luteolytic effect (cattle; same dose administered with HPβCD): incomplete luteolysis
side effects on subsequent fertility (dairy cows): no chronic side effects on subsequent fertility

SMILES: CC(=O)[C@H]1CC[C@H]2[C@@H]3CCC4=CC(=O)CC[C@]4(C)[C@H]3CC[C@]12C [progesterone]
half-life (in vivo): ~20 min
half-life of progesterone in blood ([1]; in vivo): only a few minutes
LD100 [3]: 327.1 mg/kg

SMILES: OCc1ccccc1 [benzyl alcohol]
dose eliminated in the urine as hippuric acid [4]: 75% to 85%

half life ([5]; bovine, in vivo): longer than two to three minutes
SMILES: C[C@]12CC[C@@H]3c4ccc(OC(=O)c5ccccc5)cc4CC[C@H]3[C@@H]1CC[C@@H]2O [oestradiol benzoate, oestra-1,3,5 (10)-triene-3,17β-diol 3-benzoate]
peak plasma oestradiol concentration [6, 8]: 8 to 13 pg/mL
time of peak plasma oestradiol [6, 8]: approximately 2 hours
peak plasma oestradiol concentration [6, 9]: 2 to 5 pg/mL
time of peak plasma oestradiol [6, 9]: 2 to 48 h

SMILES: C[C@]12CC[C@@H]3c4ccc(O)cc4CC[C@H]3[C@@H]1CC[C@@H]2O [oestradiol]
oestrogen levels in tissues of slaughtered animals [7]: not significantly different from untreated animals

maximum mean serum oestradiol [5, 10]: 130 to 180 pg/mL
time of maximum serum oestradiol after treatment [5, 10]: 100 to 130 min
time of maxima of serum oestradiol ([5]; 2 mg dose, intravaginal tablet with cyclodextrin carrier): 120 to 150 min
time for serum oestradiol to reach peak values from basal levels ([5]; intravaginal oestrogen tablets): 2 to 3 h
half life ([5]; oestradiol without the benzoate component): only a few minutes
SMILES: C[C@]12CC[C@@H]3c4ccc(O)cc4CC[C@H]3[C@@H]1CC[C@@H]2O [oestradiol 17β, oestra-1,3,5 (10)-triene-3,17β-diol]
peak plasma oestradiol concentration ([6]; 7.2 mg oestradiol 17β intravaginally with cyclodextrin): 10 to 20 pg/mL
duration of elevated plasma levels [6, 11]: at least 24 hours
time of peak plasma oestradiol [6, 11]: four
